Reference: ChEMBL document CHEMBL1201862, “PubChem BioAssay data set” (2004)
Active and inactive are the calls of the source.

Assays:
[1] = target: T1, Microphthalmia-associated transcription factor (Homo sapiens, UniProt O75030); assay: reducers of TRPM1 reporter luminescence, concentration series – cell-based, SK-MEL-5, cherry-picked, set 3, MITF inhibitor project, dose response (AID 493073); type: functional;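 further: SK-MEL-5 melanoma cells with luciferase driven by the MITF target TRPM1 promoter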
T1 sequence (O75030 whole entry): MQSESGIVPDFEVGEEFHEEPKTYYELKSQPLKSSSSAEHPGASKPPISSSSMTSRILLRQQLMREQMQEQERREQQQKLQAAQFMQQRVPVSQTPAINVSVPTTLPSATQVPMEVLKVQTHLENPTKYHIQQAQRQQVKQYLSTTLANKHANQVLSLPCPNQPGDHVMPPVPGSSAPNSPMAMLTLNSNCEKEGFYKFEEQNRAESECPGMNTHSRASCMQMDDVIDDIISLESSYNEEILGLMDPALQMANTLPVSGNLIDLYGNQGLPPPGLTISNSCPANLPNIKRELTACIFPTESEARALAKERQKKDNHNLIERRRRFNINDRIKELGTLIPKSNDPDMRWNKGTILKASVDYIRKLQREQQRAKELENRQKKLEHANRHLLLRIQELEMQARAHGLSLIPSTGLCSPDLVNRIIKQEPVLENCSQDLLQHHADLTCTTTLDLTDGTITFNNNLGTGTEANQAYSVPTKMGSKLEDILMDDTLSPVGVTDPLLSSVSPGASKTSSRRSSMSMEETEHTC

[2] = blockers of bursicon-stimulated LGR2 cAMP reporter – cell-based, HEK293, CRE-luciferase reporter, cherry pick, set 2, dose response (AID 743343); type: functional;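 further: transfected cells were stimulated with diluted bursicon conditioned medium after compound addition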
[3] = blockade of melanocortin 4 receptor signaling – cell-based, plate reader, cherry pick, counter-screen for LGR2 antagonist project, dose response (AID 743444); type: functional;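 further: transfected HEK 293 cells stimulated with alpha-MSH peptide; potency of inhibitors of the alpha-MSH evoked signal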
[4] = microbe, parasite or virus in culture; type: functional; details: Mycobacterium tuberculosis
[5] = P. falciparum Dd2 growth inhibitors, dose response, SYBR Green, cherry-picked samples (AID 1159567); type: functional, cell-based
BJ [6] = assay: BJ-TERT fibroblast viability loss – cell-based, RAS-independent, luminescence, dose response (AID 1933); type: functional; details: Homo sapiens
cells [7] = type: functional, cell-based
BJ [8] = assay: cells; type: functional, cell-based; details: Homo sapiens
cells [9] = type: functional, cell-based; remark: listed apart in the source
BJ [10] = assay: BJ-TERT-LT-ST fibroblast viability loss – cell-based, RAS-independent, luminescence, dose response (AID 1935); type: functional; details: Homo sapiens;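 further: BJ fibroblasts immortalized with TERT plus LT and ST oncogenes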
[11] = DRD fibroblast viability loss – cell-based, non-viral oncogenic, luminescence, dose response (AID 1934); type: functional; details: Homo sapiens
[12] = target: Heat shock protein HSP 90-alpha (Homo sapiens, UniProt P07900); type: functional, organism-based
INS1 = assay: INS-1E survival protection against cytokine death – cell-based, luminescence, retest, dose response (AID 449756); type: functional; details: Rattus norvegicus;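 further: cell death triggered by IL-1 beta plus TNF-alpha plus IFN-gamma mixture; protective hits raise ATP signal compared with cytokine alone wells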
[13] = target: T2, Polyadenylate-binding protein 1 (Homo sapiens, UniProt P11940); assay: MLLE binding blockers, Cy5 peptide tracer – biochemical, fluorescence polarization, Cy5-PAM2 peptide, secondary, miRNA deadenylation inhibitor project, dose response (AID 602260); type: functional; details: read-out: IC50_Mean
T2 sequence (P11940 whole entry, the tested form may be a part): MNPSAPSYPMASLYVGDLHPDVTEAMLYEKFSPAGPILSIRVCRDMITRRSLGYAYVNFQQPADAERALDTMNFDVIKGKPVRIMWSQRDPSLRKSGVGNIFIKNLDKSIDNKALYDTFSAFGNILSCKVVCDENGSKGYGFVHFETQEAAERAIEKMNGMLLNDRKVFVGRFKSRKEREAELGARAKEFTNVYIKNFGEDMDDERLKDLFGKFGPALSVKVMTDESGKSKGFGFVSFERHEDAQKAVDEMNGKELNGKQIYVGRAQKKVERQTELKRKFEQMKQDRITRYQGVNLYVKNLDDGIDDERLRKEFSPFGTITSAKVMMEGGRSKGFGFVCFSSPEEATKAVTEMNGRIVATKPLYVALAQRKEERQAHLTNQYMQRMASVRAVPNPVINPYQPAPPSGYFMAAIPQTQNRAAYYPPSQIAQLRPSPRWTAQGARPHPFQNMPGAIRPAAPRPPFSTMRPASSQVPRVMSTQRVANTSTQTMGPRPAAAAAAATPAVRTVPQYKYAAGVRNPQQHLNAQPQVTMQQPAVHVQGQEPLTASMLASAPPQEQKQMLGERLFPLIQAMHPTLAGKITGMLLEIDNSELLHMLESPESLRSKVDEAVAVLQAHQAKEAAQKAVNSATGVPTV

[14] = target: T2, Polyadenylate-binding protein 1; assay: MLLE domain peptide-binding blockers, IC50 – biochemical, fluorescence polarization, FITC-PAM2 peptide, dose response (AID 602259); type: functional; details: read-out: IC50_Mean
Paired box protein Pax-8 = Paired box protein Pax-8 (Homo sapiens, UniProt Q06710); assay: PAX8 transcriptional activity inhibition in RMG-I – RMG-I cells, luciferase, cherry-pick, dose response (AID 687027); type: functional, cell-based;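 further: luciferase reporter driven by Pax8 target thyroperoxidase promoter measured by SteadyGlo luminescence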
Paired box protein Pax-8, sequence (Q06710 whole entry): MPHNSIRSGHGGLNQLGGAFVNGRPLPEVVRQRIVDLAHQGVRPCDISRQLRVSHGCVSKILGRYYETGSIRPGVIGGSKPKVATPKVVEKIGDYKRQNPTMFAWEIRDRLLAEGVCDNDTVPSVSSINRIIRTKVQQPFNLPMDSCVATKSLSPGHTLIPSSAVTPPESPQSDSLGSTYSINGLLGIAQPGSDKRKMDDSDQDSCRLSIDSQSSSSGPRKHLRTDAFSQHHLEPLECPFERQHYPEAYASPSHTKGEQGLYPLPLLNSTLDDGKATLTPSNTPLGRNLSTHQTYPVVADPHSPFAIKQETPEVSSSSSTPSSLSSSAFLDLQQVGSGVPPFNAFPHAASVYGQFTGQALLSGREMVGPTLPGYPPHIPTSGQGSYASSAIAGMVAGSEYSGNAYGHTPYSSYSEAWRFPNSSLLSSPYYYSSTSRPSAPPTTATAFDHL

[15] = Luminescence Cell-Based Dose Retest to Confirm Inhibitors of Cancer Stem Cells. [Related pubchem assays (depositor defined):AID2717, AID2721]; type: functional; details: Homo sapiens
[16] = target: T3, Heat shock factor protein 1 (Mus musculus, UniProt P38532); assay: enhancement of HSF1-driven luciferase signal – cell-based, NIH3T3, luminescence, dose retest, confirmation (AID 435004); type: functional;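 further: stress induced by proteasome inhibitor MG132 added 30 min after compound; luciferase reporter driven by HSF1 response element in NIH3T3 cells; actives raise luminescence as potentiators of the MG132 stress response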
T3 sequence (P38532 whole entry): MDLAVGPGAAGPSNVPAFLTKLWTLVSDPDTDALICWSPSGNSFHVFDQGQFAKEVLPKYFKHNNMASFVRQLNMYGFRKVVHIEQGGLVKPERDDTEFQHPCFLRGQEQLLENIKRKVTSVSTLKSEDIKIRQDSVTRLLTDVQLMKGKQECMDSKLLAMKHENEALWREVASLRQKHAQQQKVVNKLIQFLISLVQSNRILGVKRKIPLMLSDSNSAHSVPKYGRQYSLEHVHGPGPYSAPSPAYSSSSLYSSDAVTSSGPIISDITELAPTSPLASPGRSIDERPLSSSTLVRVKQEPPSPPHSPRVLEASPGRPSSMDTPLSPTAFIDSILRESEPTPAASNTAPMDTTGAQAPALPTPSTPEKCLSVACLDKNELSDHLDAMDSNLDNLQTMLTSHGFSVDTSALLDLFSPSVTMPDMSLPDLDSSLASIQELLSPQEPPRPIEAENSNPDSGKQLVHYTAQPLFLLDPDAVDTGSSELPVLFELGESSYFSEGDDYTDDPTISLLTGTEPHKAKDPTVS

[17] = target: T4, Replicative DNA helicase DnaB (Mycobacterium tuberculosis, UniProt P9WMR3); assay: DnaB intein splicing inhibitors, dose response, biochemical, cell-free fluorescence (AID 449749); type: functional
T4 sequence (P9WMR3 whole entry): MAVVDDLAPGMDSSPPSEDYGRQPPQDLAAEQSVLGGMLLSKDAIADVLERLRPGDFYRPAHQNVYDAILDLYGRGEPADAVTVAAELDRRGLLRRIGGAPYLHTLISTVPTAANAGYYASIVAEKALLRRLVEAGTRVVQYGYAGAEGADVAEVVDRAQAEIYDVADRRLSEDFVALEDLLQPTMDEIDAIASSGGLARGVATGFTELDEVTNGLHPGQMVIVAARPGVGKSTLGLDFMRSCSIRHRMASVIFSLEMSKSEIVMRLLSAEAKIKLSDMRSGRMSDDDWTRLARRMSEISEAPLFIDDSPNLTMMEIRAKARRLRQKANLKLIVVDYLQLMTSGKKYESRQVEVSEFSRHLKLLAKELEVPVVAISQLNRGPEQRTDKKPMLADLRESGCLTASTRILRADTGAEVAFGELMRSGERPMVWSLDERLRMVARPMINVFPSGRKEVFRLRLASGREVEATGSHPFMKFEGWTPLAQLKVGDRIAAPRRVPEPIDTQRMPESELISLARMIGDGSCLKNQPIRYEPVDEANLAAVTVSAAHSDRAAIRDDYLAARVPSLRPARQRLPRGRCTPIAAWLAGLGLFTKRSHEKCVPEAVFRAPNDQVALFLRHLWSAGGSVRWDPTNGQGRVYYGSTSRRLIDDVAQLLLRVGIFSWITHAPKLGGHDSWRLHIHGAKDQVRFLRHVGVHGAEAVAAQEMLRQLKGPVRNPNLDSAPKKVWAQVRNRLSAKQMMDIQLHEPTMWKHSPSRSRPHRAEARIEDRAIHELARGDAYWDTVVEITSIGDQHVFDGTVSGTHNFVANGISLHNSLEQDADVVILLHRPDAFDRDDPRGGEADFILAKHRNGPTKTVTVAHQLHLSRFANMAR

Protein RecA = target: T5, Protein RecA (Mycobacterium tuberculosis, UniProt P9WHJ3); assay: Fluorescence Cell-Free Homogeneous Dose Retest to Identify Inhibitors of RecA-Intein Splicing Activity. [Related pubchem assays (depositor defined):AID2097, AID2223, AID489010, AID492950]; type: functional
T5 sequence (P9WHJ3 whole entry): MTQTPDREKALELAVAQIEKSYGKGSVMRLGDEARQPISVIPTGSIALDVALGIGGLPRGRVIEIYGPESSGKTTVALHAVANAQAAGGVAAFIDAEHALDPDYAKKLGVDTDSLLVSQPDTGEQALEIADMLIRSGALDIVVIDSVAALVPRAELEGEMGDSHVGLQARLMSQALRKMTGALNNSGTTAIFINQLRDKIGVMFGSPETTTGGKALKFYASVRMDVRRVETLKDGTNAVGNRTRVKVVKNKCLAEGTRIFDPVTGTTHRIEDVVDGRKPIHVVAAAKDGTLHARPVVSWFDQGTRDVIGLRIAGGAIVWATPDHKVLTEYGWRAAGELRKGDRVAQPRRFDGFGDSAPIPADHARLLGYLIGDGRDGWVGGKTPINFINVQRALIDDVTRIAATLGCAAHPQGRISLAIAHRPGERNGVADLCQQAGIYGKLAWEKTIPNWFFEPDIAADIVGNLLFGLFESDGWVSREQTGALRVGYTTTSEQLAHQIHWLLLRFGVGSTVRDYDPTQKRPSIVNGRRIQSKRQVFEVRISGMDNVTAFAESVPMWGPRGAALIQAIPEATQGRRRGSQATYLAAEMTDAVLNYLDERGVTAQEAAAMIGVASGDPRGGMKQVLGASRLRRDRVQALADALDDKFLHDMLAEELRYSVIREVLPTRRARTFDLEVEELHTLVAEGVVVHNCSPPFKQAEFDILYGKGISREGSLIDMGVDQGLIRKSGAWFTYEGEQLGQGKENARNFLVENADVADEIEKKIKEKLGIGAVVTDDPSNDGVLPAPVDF

[18] = target: Voltage-dependent T-type calcium channel subunit alpha-1H (Homo sapiens, UniProt O95180); type: functional;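 further: channel activity triggered by adding a high calcium stimulation buffer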
Voltage-dependent T-type calcium channel subunit alpha-1H, sequence (O95180 whole entry): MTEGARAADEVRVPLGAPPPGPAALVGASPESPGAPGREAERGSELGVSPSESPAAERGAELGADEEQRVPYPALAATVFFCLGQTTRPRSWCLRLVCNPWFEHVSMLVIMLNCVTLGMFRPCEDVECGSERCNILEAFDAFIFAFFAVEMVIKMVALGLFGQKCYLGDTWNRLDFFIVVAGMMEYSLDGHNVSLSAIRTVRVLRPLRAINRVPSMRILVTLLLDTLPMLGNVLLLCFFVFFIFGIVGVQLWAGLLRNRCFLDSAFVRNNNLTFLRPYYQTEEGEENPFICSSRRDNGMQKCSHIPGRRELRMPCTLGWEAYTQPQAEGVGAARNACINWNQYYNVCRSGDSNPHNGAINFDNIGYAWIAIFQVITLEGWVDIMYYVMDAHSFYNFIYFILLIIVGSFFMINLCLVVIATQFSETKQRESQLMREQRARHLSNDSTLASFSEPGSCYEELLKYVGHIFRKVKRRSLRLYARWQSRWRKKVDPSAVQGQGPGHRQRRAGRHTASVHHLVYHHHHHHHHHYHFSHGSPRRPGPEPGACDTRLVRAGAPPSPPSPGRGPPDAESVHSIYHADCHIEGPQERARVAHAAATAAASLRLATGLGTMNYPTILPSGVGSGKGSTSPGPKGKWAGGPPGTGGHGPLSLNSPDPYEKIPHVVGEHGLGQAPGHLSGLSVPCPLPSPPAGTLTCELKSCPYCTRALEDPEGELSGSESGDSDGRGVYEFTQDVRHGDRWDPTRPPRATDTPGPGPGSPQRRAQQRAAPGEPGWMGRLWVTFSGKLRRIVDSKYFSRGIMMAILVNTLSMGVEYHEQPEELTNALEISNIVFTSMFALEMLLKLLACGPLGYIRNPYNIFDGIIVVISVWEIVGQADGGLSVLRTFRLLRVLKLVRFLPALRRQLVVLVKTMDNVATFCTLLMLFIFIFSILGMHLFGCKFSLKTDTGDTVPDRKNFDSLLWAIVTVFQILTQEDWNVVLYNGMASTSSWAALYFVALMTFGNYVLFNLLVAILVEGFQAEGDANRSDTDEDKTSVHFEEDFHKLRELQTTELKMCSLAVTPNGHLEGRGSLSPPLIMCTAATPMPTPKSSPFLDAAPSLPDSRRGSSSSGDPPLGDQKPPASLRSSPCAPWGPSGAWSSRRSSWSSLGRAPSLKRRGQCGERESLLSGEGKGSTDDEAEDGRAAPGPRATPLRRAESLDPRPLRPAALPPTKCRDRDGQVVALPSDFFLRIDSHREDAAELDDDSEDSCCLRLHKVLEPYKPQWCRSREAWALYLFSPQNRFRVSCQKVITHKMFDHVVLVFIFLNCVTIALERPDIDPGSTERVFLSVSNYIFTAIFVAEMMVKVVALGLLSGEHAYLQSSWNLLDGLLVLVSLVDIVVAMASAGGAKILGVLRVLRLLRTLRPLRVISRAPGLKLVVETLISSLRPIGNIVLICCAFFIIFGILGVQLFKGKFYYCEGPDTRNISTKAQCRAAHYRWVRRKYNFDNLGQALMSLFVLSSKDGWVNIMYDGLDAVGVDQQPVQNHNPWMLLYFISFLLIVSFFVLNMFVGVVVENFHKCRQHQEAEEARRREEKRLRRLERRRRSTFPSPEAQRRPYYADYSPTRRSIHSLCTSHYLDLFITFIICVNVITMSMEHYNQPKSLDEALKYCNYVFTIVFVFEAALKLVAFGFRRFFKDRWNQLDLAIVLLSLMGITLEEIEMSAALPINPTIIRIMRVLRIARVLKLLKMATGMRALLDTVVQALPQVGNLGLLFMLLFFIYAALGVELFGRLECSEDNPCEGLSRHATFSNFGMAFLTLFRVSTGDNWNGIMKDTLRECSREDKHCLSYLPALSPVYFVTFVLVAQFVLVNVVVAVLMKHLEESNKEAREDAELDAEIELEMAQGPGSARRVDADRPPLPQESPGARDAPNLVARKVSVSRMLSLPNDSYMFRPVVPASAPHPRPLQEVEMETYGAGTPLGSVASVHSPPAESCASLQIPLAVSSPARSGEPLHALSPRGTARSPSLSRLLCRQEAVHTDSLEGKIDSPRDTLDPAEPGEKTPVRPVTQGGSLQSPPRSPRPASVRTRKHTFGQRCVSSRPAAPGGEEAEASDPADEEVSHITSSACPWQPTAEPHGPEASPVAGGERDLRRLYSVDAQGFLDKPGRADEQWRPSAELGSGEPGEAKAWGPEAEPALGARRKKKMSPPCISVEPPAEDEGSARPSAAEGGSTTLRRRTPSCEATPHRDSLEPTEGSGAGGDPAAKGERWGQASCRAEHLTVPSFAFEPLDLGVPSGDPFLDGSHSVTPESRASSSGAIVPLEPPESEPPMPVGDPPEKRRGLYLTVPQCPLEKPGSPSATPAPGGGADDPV

[19] = target: T6, High affinity choline transporter 1 (Homo sapiens, UniProt Q9GZV3); assay: human choline transporter blockers, potency – cell-based, 5-point CRC, membrane potential dye, dose response (AID 504840); type: functional
T6 sequence (Q9GZV3 whole entry): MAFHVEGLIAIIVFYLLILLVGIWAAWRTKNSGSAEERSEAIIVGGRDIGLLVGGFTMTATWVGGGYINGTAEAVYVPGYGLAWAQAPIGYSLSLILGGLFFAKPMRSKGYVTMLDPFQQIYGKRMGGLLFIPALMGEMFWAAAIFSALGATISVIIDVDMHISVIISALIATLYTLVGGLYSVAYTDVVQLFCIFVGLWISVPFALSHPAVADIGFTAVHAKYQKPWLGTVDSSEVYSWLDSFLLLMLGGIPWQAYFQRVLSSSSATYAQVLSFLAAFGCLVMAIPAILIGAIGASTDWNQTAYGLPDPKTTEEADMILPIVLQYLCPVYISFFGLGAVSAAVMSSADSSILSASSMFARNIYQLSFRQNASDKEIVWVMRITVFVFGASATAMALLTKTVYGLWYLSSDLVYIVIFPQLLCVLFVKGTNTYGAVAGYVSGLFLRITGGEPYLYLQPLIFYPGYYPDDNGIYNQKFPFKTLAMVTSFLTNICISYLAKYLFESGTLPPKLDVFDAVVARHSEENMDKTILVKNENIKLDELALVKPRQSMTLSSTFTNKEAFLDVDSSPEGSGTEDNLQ

cells [20] = type: functional

Q: For `O=C(CCCc1ccccc1)Nc1cccc(C(=O)O)c1`, which AC50 [1] is on record?
A: 4.42 µM (active)

Q: And the AC50 [2]?
A: 2.04 µM (active)

Q: What about the AC50 [3] of the same compound?
A: 1.91 µM (active)

Q: With `CCCCCOc1ccc(N2C(=O)C3C4C=CC(C3C2=O)N(C)C4=O)cc1` (centres undefined) as the compound, how does the CC50 [4] read?
A: > 40 µM (active)

Q: For `CO[C@@H]1CN(C)C(=O)c2cc(NC(=O)Nc3ccc(C(F)(F)F)cc3)ccc2OC[C@H](C)NC[C@@H]1C`, which AC50 [5] is on record?
A: 5.85 µM (active)

Q: With `Oc1ccc2ccccc2c1N=Nc1nccs1` as the compound, how does the EC50 (BJ [6]) read?
A: 1.32 µM (active)

Q: What about the EC50 (cells [7]) of the same compound?
A: 40.4 µM (active)

Q: And the EC50 (BJ [8])?
A: 2.03 µM (active)

Q: What about the CC50 [4] of the same compound?
A: 17.8 µM (active)

Q: And the EC50 (cells [9])?
A: 40.5 µM (active)

Q: What about the EC50 (BJ [10]) of the same compound?
A: 2.91 µM (active)

Q: And the EC50 [11]?
A: 10.3 µM (active)

Q: What about the AC50 [12] of the same compound?
A: 0.932 µM (active)

Q: And the AC50 (INS1)?
A: 0.666 µM (active)

Q: What about the IC50 [13] of the same compound?
A: > 66 µM (inactive)

Q: And the IC50 [14]?
A: > 66 µM (inactive)

Q: What about the AC50 (Paired box protein Pax-8) of the same compound?
A: 2.92 µM (active)

Q: What does the source list for `COC(=O)[C@@H]1C[C@]2(OC(=O)c3ccccc3)C=CC(=O)C[C@@H]2N1C(=O)OCc1ccccc1`?
A: AC50 [15]: 6.36 µM (active); EC50 [16]: 18.5 µM (active); AC50 [1]: 14 µM (active); AC50 [17]: 8.72 µM (active); EC50 (Protein RecA): 10.5 µM (active)

Q: With `COc1ccc2c3c(n(C)c2c1)[C@H](CO)N(C(=O)Nc1ccc(F)cc1)CC31CCN(Cc2ccccn2)CC1` as the compound, how does the AC50 [5] read?
A: 3.43 µM (active)

Q: Which results are given for `CCc1ccccc1NC(=O)c1ccc(CN2CCC(Cc3ccccc3)CC2)cc1`?
A: EC50 [18]: 0.111 µM (active); IC50 [19]: 13.8 µM (active)

Q: For `C/C(=N\NC1=NCCN1)c1ccccc1`, which IC50 [19] is on record?
A: 12.9 µM (active)

Q: With `Cc1cc(C)cc(-n2c(C)c3c(C)nnc(C)c3c2C)c1` as the compound, how does the CC50 [4] read?
A: > 40 µM (active)

Q: What does the source list for `Cc1cc(OCc2cc(C(=O)N(C)CCc3cnn(C)c3)no2)cc(C)c1Cl`?
A: CC50 [4]: > 40 µM (active); IC50 (cells [20]): 29.6 µM (active)

Q: For `CC1CCN(S(=O)(=O)c2ccc3c(c2)N(CC(=O)NCCCN2C(C)CCCC2C)C(=O)CO3)CC1` (centres undefined), which IC50 [19] is on record?
A: 13.5 µM (active)

Q: With `COc1ccc(-c2ccc3c(c2)[C@@H]2[C@@H](CCN2Cc2ccncc2)[C@@H](CO)N3)cc1` as the compound, how does the AC50 [5] read?
A: 8.88 µM (active)

Q: Which IC50 [19] does the source give for `CCc1nnc(NS(=O)(=O)c2ccc(NC(=O)c3cccc(Br)c3)cc2)s1` here?
A: 13.2 µM (active)

Q: Which IC50 [19] does the source give for `CN(Cc1ccccc1)c1nc(N)nc(Cl)c1C=O` here?
A: 15.1 µM (active)

Q: Which AC50 [5] does the source give for `N#C[C@@H]1[C@@H](c2ccccc2C2=CCCC2)[C@H](CO)N1C(=O)C1CC1` here?
A: > 36 µM (inactive)
